Test results published in US20250082774A1, “PEPTIDE LINKERS COMPRISING TWO OR MORE PAYLOADS” (ARARIS BIOTECH AG, priority 2022, published 2025).
Entries after “also recorded” stand apart in the source; their conditions may differ.

Assays:
various tumor cell lines = details: cited from earlier work
[1] = test system: SUM190PT (Nectin-4-positive, solid tumor) xenograft; assay: Tumor growth inhibition in SUM190PT xenograft model; assay type: in vivo, CB17 SCID mice; details: single i.v. injection
Experimental: For SUM190PT xenografts, 2×10^6 cells were injected into the mammary fat pad of CB17 SCID mice (Janvier). Tumor dimensions and body weights were recorded three times weekly. The tumor volume was calculated according to the formula volume=(width)^2×length×0.5. When the average tumor size reached about 200 mm^3, mice were allocated using a non-random stratification protocol into the treatment groups comprising six mice each. ADCs were intravenously injected once on the day of randomization. The ADCs according to this invention were produced in-house as described in Example 2. Enfortumab vedotin (DAR 4) was commercially available, bought from a pharmacy. ARA-04-MMAE-PABC-AA-C2-RKAA-PABC-MMAE (DAR 4.0) and ARA-04-RKAA-PABC-(MMAE)2 (DAR 3.8) were injected at ADC doses corresponding to 10 μg payload dose per kg mouse weight (10 μg/kg). Enfortumab vedotin (DAR 4) was injected 15 μg payload dose per kg mouse weight (15 μg/kg). Mice in the control group were injected with PBS. All mouse experiments were performed in accordance with Swiss guidelines and were approved by the Veterinarian Office of Zurich, Switzerland.

RNA-polymerase II = RNA-polymerase II (Homo sapiens, UniProt P24928); details: read-out: KD of the complex between amanitin and RNA-polymerase II; cited from earlier work
[2] = 10 μg/kg payload dose, six mice per group

CC[C@H](C)[C@H](NC(=O)[C@H]1CCCCN1C)C(=O)N(COC(=O)CC(C)C)[C@H](C[C@@H](OC(C)=O)c1nc(C(=O)N[C@@H](Cc2ccc(O)cc2)C[C@H](C)C(=O)O)cs1)C(C)C [Tubulysin A]
IC50, cytostatic effects (various tumor cell lines): picomolar range

ARA-04-MMAE-PABC-AA-C2-RKAA-PABC-MMAE: anti-Nectin-4 ADC (DAR 4.0), same antibody and payload as Enfortumab vedotin, payloads at N- and C-terminal end of peptide linker
anti-tumor response (in words) [1, 2]: active in vivo; also recorded: superior efficacy providing survival advantage
mice with complete long-lasting responses [1, 2]: 4/6

amanitin
Kd (RNA-polymerase II): 3 nM

ARA-04-RKAA-PABC-(MMAE)2: anti-Nectin-4 ADC (DAR 3.8), same antibody and payload as Enfortumab vedotin, payloads only at C-terminal end of peptide linker
anti-tumor response (in words) [1, 2]: tumor control for approximately 20 days in 6/6 mice followed by re-growth of tumors; also recorded: active in vivo

Enfortumab vedotin [reference compound]
animals with marked regrowth after day 40 ([1]; 15 μg/kg payload dose): 6/6
anti-tumor response (in words) ([1]; 15 μg/kg payload dose, six mice per group): transient tumor regression with no tumor-free individuals at 20 days after treatment
